Measurements published in US20060216356A1, “Detection of antibacterial activity in excretory secretory product of adult trichuris suis” (Board of Trustees of Michigan State University, priority 2000, published 2006).
≈ marks a conversion by molar mass, not a printed value. Counter-ions that a name gives are not always drawn.

Legend:
Campylobacter jejuni [1] = assay: HPLC fractionation with qualitative broth microdilution bioassay of fractions; assay type: cell-based; settings: C18 reverse phase HPLC, 5-80% ACN gradient in TFA
Protocol: (§1) A broth microdilution method in 96 well plates was used to obtain qualitative and quantitative measures of antibacterial activity. Qualitatively, 50 μl samples of ESP were added to 50 μl suspensions of Campylobacter jejuni (containing about 5×10^5 cfu, as determined by standard serial dilution and plating) in 96 well plates. Plates were evaluated for growth as indicated by the presence of either turbidity or pellet of bacterial cells in the bottoms of U-shaped wells after 48 hr incubation.
High performance liquid chromatography. A Model 173 high performance liquid chromatography (HPLC) system (Perkin Elmer Applied Biosystems, Inc., Foster City, Calif.) at the Michigan State University Macromolecular Structure Facility was used to fractionate Trichuris suis ESP for preliminary isolation of the antibacterial activity (Hearn, Meth. Enzymol. 104: 190-212 (1984)). Samples (150 μl) of ESP were mixed with an equal volume of 0.1% trifluoroacetic acid (TFA) and centrifuged at full speed (11,000×g) at room temperature for 15 minutes. […] Absorbance of the eluate was monitored at 214 nm, and fractions were collected manually as peaks were detected. […]

Campylobacter jejuni [2] = assay: Effect of boiling on antibiotics, qualitative broth microdilution assay; assay type: cell-based; settings: 1x concentration, boiled for 10 minutes
Protocol: as §1, with “incubation. […] The size of the drug was also taken into consideration. Additionally, an experiment to assess the heat stability of the antibiotics was performed.” for “incubation.”

Campylobacter jejuni [3] = assay: Broth microdilution MIC/MBC and antibacterial titer on Campylobacter jejuni; assay type: cell-based
Protocol: Bacterial strains and media. The antibacterial activity in Trichuris suis ESP was originally observed using Campylobacter jejuni (ATCC 33292), and this was the strain on which most experiments were performed for this preliminary characterization. Several Campylobacter jejuni and Campylobacter coli isolates were used for MIC determinations (Table 1).
Additional quality control organisms routinely used for antimicrobial susceptibility assays were tested, including Enterococcus faecalis (ATCC 29212), Staphylococcus aureus (ATCC 25923), Escherichia coli (ATCC 25922), Pseudomonas aeruginosa (ATCC 27853), and Streptococcus pneumonia (ATCC 49619). […]
as §1
To quantify activity and determine the minimum inhibitory concentration (MIC) of ESP against test organisms, serial two-fold dilutions of 20×-concentrated ESP were prepared in 50 μl volumes of MHB (n=2). […]

[4] = n-octanol/water partition coefficient (log PC) of antibiotics; assay type: physicochemical; settings: in parentheses beside log PC
Protocol: Consideration of CAP contamination. […] Using the worst-case scenario, the predicted maximum amount of CAP absorbed and how much would be released into the medium if the whipworms dissolved (i.e., released 100%) was estimated. […] It was assumed that the aggregate whipworm volume of these eccentrically shaped nematodes occupied 4% of the incubation well volume (4 whipworms/ml at about 10 μl/whipworm).

[5] = compiled from a drug database at Upjohn; cited from earlier work

SMILES	antibacterial activity of HPLC fractions (Campylobacter jejuni [1])	Antibacterial activity after boiling (Campylobacter jejuni [2])	MIC (Campylobacter jejuni [3]) [µg/mL]	Concentrating factor [4] [x]	log PC (n-octanol/water partition coefficient) [5]
O=C(N[C@H](CO)[C@H](O)c1ccc([N+](=O)[O-])cc1)C(Cl)Cl [Chloramphenicol]	one fraction with antibacterial activity	+	~2 (≈ 6.19 µM)		
CC1(C)S[C@@H]2[C@H](NC(=O)Cc3ccccc3)C(=O)N2[C@H]1C(=O)O [Penicillin G]		−		71	185
[H]/N=C(/N)N[C@H]1[C@H](O)[C@@H](O)[C@H](O[C@@H]2O[C@@H](C)[C@](O)(C=O)[C@H]2O[C@@H]2O[C@@H](CO)[C@H](O)[C@@H](O)[C@@H]2NC)[C@@H](N/C(N)=N\[H])[C@@H]1O [Streptomycin sulfate]		+			−9.53(—)
